Test results reported in PubChem BioAssay (NCI).
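Protocol summary: plate cells (96-well), add compound at 5 concentrations, incubate 48 h, interpolate endpoints linearly. The concentration for 50% growth inhibition is given as GI50. TGI: concentration producing complete growth inhibition.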

Assays:
Experiment in all cases: NCI-60 cell line screen, 48 h
SNB-75 CNS = system: SNB-75 CNS
UACC-257 melanoma = system: UACC-257 melanoma
NCI-H23 lung = system: NCI-H23 lung
ACHN renal = system: ACHN renal
HL-60(TB) leukemia = system: HL-60(TB) leukemia
HS 578T breast = system: HS 578T breast
UACC-62 melanoma = system: UACC-62 melanoma
MDA-MB-435 = system: MDA-MB-435
SK-MEL-2 melanoma = system: SK-MEL-2 melanoma
M14 melanoma = system: M14 melanoma
BT-549 breast = system: BT-549 breast
HOP-62 NSCLC = system: HOP-62 NSCLC
COLO 205 colon = system: COLO 205 colon
HT29 colon = system: HT29 colon
A549 NSCLC = system: A549 NSCLC
DU-145 prostate = system: DU-145 prostate
A498 renal = system: A498 renal
NCI-H226 lung = system: NCI-H226 lung
TK-10 renal = system: TK-10 renal
T-47D breast = system: T-47D breast
SNB-19 CNS = system: SNB-19 CNS
UO-31 renal = system: UO-31 renal
SF-539 CNS = system: SF-539 CNS
MOLT-4 leukemia = system: MOLT-4 leukemia
HCC-2998 colon = system: HCC-2998 colon
MDA-MB-231 breast = system: MDA-MB-231 breast
K-562 leukemia = system: K-562 leukemia
OVCAR-8 ovarian = system: OVCAR-8 ovarian

Question: COc1ccc(-c2nc(-c3nc4cc(C)c(C)cc4[nH]3)cc3c2[nH]c2ccccc23)cc1 was tested. Which GI50 (SNB-75 CNS) did it give?
Answer: The GI50 was 3.44 µM.

Question: And the TGI (SNB-75 CNS)?
Answer: Its TGI is 35 µM.

Question: What about the GI50 (UACC-257 melanoma) of the same molecule?
Answer: Its GI50 is 3.47 µM.

Question: And the TGI (UACC-257 melanoma)?
Answer: The TGI was 14.4 µM.

Question: What about the GI50 (NCI-H23 lung) of the same molecule?
Answer: Its GI50 is 11 µM.

Question: And the TGI (NCI-H23 lung)?
Answer: The TGI was 68.2 µM.

Question: And the GI50 (ACHN renal)?
Answer: Its GI50 is 2.6 µM.

Question: What about the TGI (ACHN renal) of the same molecule?
Answer: The TGI was 27.9 µM.

Question: What about the GI50 (HL-60(TB) leukemia) of the same molecule?
Answer: The GI50 was 2.59 µM.

Question: And the TGI (HL-60(TB) leukemia)?
Answer: Its TGI is 5.96 µM.

Question: And the GI50 (HS 578T breast)?
Answer: Its GI50 is 4.6 µM.

Question: What about the TGI (HS 578T breast) of the same molecule?
Answer: The TGI was over 100 µM.

Question: And the GI50 (UACC-62 melanoma)?
Answer: The GI50 was 2.25 µM.

Question: And the TGI (UACC-62 melanoma)?
Answer: The TGI was 6.7 µM.

Question: What about the GI50 (MDA-MB-435) of the same molecule?
Answer: Its GI50 is 3.97 µM.

Question: And the TGI (MDA-MB-435)?
Answer: Its TGI is over 100 µM.

Question: What about the GI50 (SK-MEL-2 melanoma) of the same molecule?
Answer: Its GI50 is 3.28 µM.

Question: What about the TGI (SK-MEL-2 melanoma) of the same molecule?
Answer: The TGI was 8.25 µM.

Question: And the GI50 (M14 melanoma)?
Answer: Its GI50 is 4.16 µM.

Question: What about the TGI (M14 melanoma) of the same molecule?
Answer: Its TGI is 24.8 µM.

Question: And the GI50 (BT-549 breast)?
Answer: Its GI50 is 2.96 µM.

Question: What about the TGI (BT-549 breast) of the same molecule?
Answer: Its TGI is 8.21 µM.

Question: What about the GI50 (HOP-62 NSCLC) of the same molecule?
Answer: The GI50 was 7.63 µM.

Question: What about the TGI (HOP-62 NSCLC) of the same molecule?
Answer: Its TGI is over 100 µM.

Question: And the GI50 (COLO 205 colon)?
Answer: The GI50 was 1.79 µM.

Question: What about the TGI (COLO 205 colon) of the same molecule?
Answer: Its TGI is 3.8 µM.

Question: And the GI50 (HT29 colon)?
Answer: The GI50 was 3.76 µM.

Question: And the TGI (HT29 colon)?
Answer: Its TGI is over 100 µM.

Question: What about the GI50 (A549 NSCLC) of the same molecule?
Answer: Its GI50 is 3.94 µM.

Question: What about the TGI (A549 NSCLC) of the same molecule?
Answer: Its TGI is over 100 µM.

Question: What about the GI50 (DU-145 prostate) of the same molecule?
Answer: Its GI50 is 8.53 µM.

Question: What about the TGI (DU-145 prostate) of the same molecule?
Answer: The TGI was over 100 µM.

Question: And the GI50 (A498 renal)?
Answer: The GI50 was 14.4 µM.

Question: And the TGI (A498 renal)?
Answer: Its TGI is 42.4 µM.

Question: What about the GI50 (NCI-H226 lung) of the same molecule?
Answer: Its GI50 is 3.32 µM.

Question: And the TGI (NCI-H226 lung)?
Answer: Its TGI is 54.8 µM.

Question: And the GI50 (TK-10 renal)?
Answer: The GI50 was 7.85 µM.

Question: And the TGI (TK-10 renal)?
Answer: The TGI was over 100 µM.

Question: And the GI50 (T-47D breast)?
Answer: Its GI50 is 3.09 µM.

Question: And the TGI (T-47D breast)?
Answer: Its TGI is 7.92 µM.

Question: And the GI50 (SNB-19 CNS)?
Answer: The GI50 was 68.9 µM.

Question: What about the TGI (SNB-19 CNS) of the same molecule?
Answer: The TGI was over 100 µM.

Question: What about the GI50 (UO-31 renal) of the same molecule?
Answer: The GI50 was 2.53 µM.

Question: What about the TGI (UO-31 renal) of the same molecule?
Answer: The TGI was 52.5 µM.

Question: And the GI50 (SF-539 CNS)?
Answer: The GI50 was 1.72 µM.

Question: What about the TGI (SF-539 CNS) of the same molecule?
Answer: Its TGI is 4.24 µM.

Question: And the GI50 (MOLT-4 leukemia)?
Answer: The GI50 was 2.37 µM.

Question: And the TGI (MOLT-4 leukemia)?
Answer: Its TGI is 6.46 µM.

Question: What about the GI50 (HCC-2998 colon) of the same molecule?
Answer: The GI50 was 3.88 µM.

Question: What about the TGI (HCC-2998 colon) of the same molecule?
Answer: Its TGI is 94.8 µM.

Question: What about the GI50 (MDA-MB-231 breast) of the same molecule?
Answer: The GI50 was 2.54 µM.

Question: And the TGI (MDA-MB-231 breast)?
Answer: Its TGI is 7.76 µM.

Question: And the GI50 (K-562 leukemia)?
Answer: Its GI50 is 3.36 µM.

Question: And the TGI (K-562 leukemia)?
Answer: Its TGI is 20.9 µM.

Question: And the GI50 (OVCAR-8 ovarian)?
Answer: The GI50 was 3.46 µM.
